Reference: patent EP0219491B1, “OXINDOLE ALKALOIDS WITH PROPERTIES STIMULATING THE IMMUNITY SYSTEM AND PREPARATIONS CONTAINING THEM” (KEPLINGER, Klaus, priority 1984, dated 1986)

Legend:
[1] = system: Granulozytenfraktion (PMNL-Fraktion); experiment: Granulocyte test modified after BRANDT (phagocytosis of yeast cells by PMNL); assay type: cell-based, menschlichen Blut; conditions: for Wirksamkeit im Granulozytentest: summary in words
Description: Neutrophile Granulozyten sind zusammen mit Makrophagen die wichtigsten Effektorzellen der Phagozytose und nehmen damit eine wichtige Stellung in der Infektabwehr ein. Sie stellen etwa 60-70% aller weissen Blutkörperchen im menschlichen Blut dar. Der Phagozytoseleistung dieser Granulozyten lässt sich in vitro nach einer von BRANDT (Scand. J. Haematol. Suppl 2, 1967) entwickelten und vonTYMPNER (Münchn. Med. WSchr. 8, 251, 1978) modifizierten Methodik messen.
Dabei wird aus dem Blut gesunder Probanden eine Granulozytenfraktion (PMNL-Fraktion) gewonnen.
Diese PMNL-Fraktion besteht hauptsächlich aus neutrophilen Granulozyten neben wenig eosinophilen und basophilen Granulozyten sowie Lymphozyten, Monozyten und Thrombozyten. Nach Zusatz einer definierten Menge von Hefezellen (Saccharomyces cerevisiae) und der zu testenden Substanz wird zunächst 10 min bei 37° C inkubiert, die Aufschwemmung auf einem Objektträger ausgestrichen und weitere 35 min bei Raumtemperatur inkubiert. Anschliessend werden die Ausstriche angefärbt und mikroskopisch ausgewertet. Pro Objektträger werden 100 PMNL-Zellen ausgewählt und bestimmt, wieviele Hefepartikel von den einzelnen Zellen phagozytiert wurden. Der Phagozytoseindex (PJ) gibt die durchschnittliche Anzahl von phagozytierten Hefepartikeln pro Granulocyt an. Die Steigerung (S) der Phagozytoseaktivität im Blindwert wurde berechnet nach: [formula]

[2] = system: Asciteszellen von Walker-250-Carcinosarkomen von Ratten; experiment: Cytotoxicity by 3H-thymidine incorporation test on ascites cells; assay type: cell-based; conditions: Walker 256; 2 mg/ml; read-out: Mittelwert der Methotrexat-Hemmung
Description: Da im Granulozytentest einige Substanzen in hoher Konzentration die Granulozyten lysierten, wurde auch die zellschädigende Wirkung am Modell des 3H-Thymidineinbautests in Asciteszellen geprüft, um eine mögliche Beziehung zwischen Phagozytosesteigerung und Cytotoxizität auffinden zu können.
In diesem in-vitro-Testsystem nach WEITZEL et al (Hoppe-Seyler's Z. Physiorog. Chem. 348, 433, 1967) kann die Cytotoxizität von Substanzen durch Hemmung der DNA-Synthese von Tumorzellen zahlenmässig durch die veränderten Einbauraten von ^3H-Tymidin in Asciteszellen von […] von Ratten erfasst werden.
Die Ergebnisse wurden mit der Kontrolle verglichen und die Hemmeffekte in Prozent ausgedrückt. Relativierung der Testergebnisse Da die prozentuale Einbauhemmung bei gleichen Substanzen Schwankungen bis zu 30% zwischen einzelnen Versuchen zeigte, wurde Methotrexat®, welches als Folsäureantagonist die DNA-Synthese hemmt, als Bezugssubstanz in jeder Versuchsreihe mitgetestet. Der Mittelwert der Methotrexat®-Hemmung (43% bei 2 mg/ml) wurde zur Ermittlung der relativen Hemmung H der Substanzen herangezogen.

[3] = system: Granulozyten; experiment: Chemiluminescence test (CL), respiratory burst of phagocytes activated with opsonised Zymosan; assay type: cell-based
Description: Obwohl der Granulozytentest nach BRANDT eine zuverlässige Methode zur Ermittlung phagozytosesteigernder Eigenschaften von Substanzen und Extrakten darstellt, ist er sehr zeit- und personalaufwendig. Eine Alternative bietet die neue Methode der Chemilumineszenzmessung phagozytierender Zellen.
Seitdem ALLEN et al. (Biochem. Biophys. Res. Commun, 47,129,1972) als erste die Lichtemission von neutrophilen Granulozyten während der Phagozytose von Latexpartikeln und verschiedener Bakterien entdeckten und NELSON et al. (Infect. Immun 14,129,1976) und WEIDEMANN et al. (FEBS Letters 89,136,1978) CL-Erscheinungen an phagozytierenden Blutmakrophagen (Monozyten) nachweisen konnten, wird diese Reaktion auch in der experimentellen und klinischen Immunologie angewendet. Der genaue Mechanismus der dabei ablaufenden Reaktion konnte allerdings bis heute noch nicht vollständig aufgeklärt werden. Zusammenfassend lässt sich die bei aktivierten Phagozyten auftretende CL folgendermassen darstellen: der Kontakt dieser Zellen mit Bakterien, Viren oder anderem körperfremden Material, z.B. auch chemische Substanzen, führt zunächst zu einer gesteigerten Sauerstoffaufnahme. Anschliessend werden in der Zelle aus dem molekularen Sauerstoff Superoxid-Anion-Radikale O2^- gebildet, die sich dann entweder spontan oder enzymatisch katalysiert in andere aktivierte Sauerstoffmoleküle, wie Wasserstoffperoxid (H202), Singulett-Sauerstoff (^1O2), Hydroxylradikale (OH) und Hypochlorit-Anionen (OCI-) umwandeln. Dieser Vorgang wird «respiratory burst» genannt.
Durch die Freisetzung der aktivierten Sauerstoffmoleküle in die unmittelbare Umgebung der phagozytierenden Zelle, wie auch in die phagozytische Vakuole selbst und durch die Aktivierung lysosomaler Enzyme können eingedrungene Mikroorganismen oder Tumorzellen geschädigt oder getötet werden. Auch andere Moleküle sind daran beteiligt, so z.B. sogenannte kationische Proteine .und Laktoferrin. Die Zellwände der Mikroorganismen werden durch Oxidation oder Reduktion angegriffen und teilweise zerstört. Als Nebeneffekt tritt dabei CL auf, da das Zellwandmaterial als chemilumineszierendes Substrat für die aktivierten Sauerstoffmoleküle dient.
Die geringe Lichtausbeute solcher CL-Reaktionen phagozytierender Zellen wird im in-vitro-Experiment durch den Zusatz von Substanzen erhöht, die durch aktivierten Sauerstoff oxidiert werden und dabei Licht bestimmter Wellenlänge erzeugen, welches physikalisch gemessen werden kann. Als Substrate eignen sich dabei Luminol (5-Amino-2,3-dihydro-1,4-phthalazindion) und Lucigenin (10,10'-Dimethyl-9,9'-biacridiniumdini- trat), welche die CL-Antwort um das 10^3fache steigern.
Durch den Einsatz empfindlicher Messgeräte, in denen die Photonenzählung mit Hilfe von Photomultipliern erfolgt, lässt sich die durch die oben genannten Substanzen verstärkte CL messen. Es wurde ein 6-Kanal-CL-Gerät Biolumat^@ LB 9505 der Fa. Berthold benutzt, das sechs Testungen zur gleichen Zeit ermöglicht. Darüberhinaus erlaubte es das verwendete Gerät auch, die CL-Antwort zeitabhängig zu registrieren. So konnten den Dosis-Wirkungs- Kurven als dritte Dimension die zeitabhängige Wirkung hinzugefügt werden.
Zur in-vitro-Untersuchung des phagozytosesteigenden Wirkung von Substanzen können entweder gereinigte Zellpopulationen von Granulozyten oder Makrophagen verwendet werden, oder die Messung erfolgt direkt in verdünntem Vollblut.
Die Aktivierung der Phagozyten erfolgt dabei durch feste Partikel, z.B. opsonierte Bakterien, Zy- mosan^@ und Latexpartikel, oder durch bestimmte gelöste Substanzen. Bekannte Aktivatoren sind z.B. verschiedene lonophoren und Fluorid-lonen.
• a) Vollblut: 460 µl Veronal®-gepufferte Kochsalzlösung • 200 µl verdünntes Vollblut • 100 pl Lucigenin-Lösung • 200 µl in PBS (phosphat-gepufferte Kochsalzlösung) gelöste Substanz bzw. PBS als Kontrolle • b) PMNL: 630 µl Veronal@-gepufferte Kochsalzlösung • 15 µl PMNL • 100 µl Lucigenin-Lösung 200 µl in PBS gelöste Substanz bzw. PBS als Kontrolle […]

[4] = system: Makrophagen-Phagozytose; experiment: In vitro macrophage phagocytosis; assay type: cell-based; conditions: Konzentrationen von 10-^4% und 10-^5%

Row | Compound | Wirkung im Granulozytentest ([1]; tested up to 10^-4%) | Wirksamkeit im Granulozytentest [1] | prozentuelle Phagozytosesteigerung ([1]; Konzentration 10^-2 (in %)) | prozentuelle Phagozytosesteigerung ([1]; Konzentration 10^-3 (in %)) | prozentuelle Phagozytosesteigerung ([1]; Konzentration 10^-4 (in %)) | prozentuelle Phagozytosesteigerung ([1]; Konzentration 10^-5 (in %)) | other results
1 | CC[C@@]1(O)C(=O)OCc2c1cc1n(c2=O)Cc2cc3ccccc3nc2-1 [Camotothecin, reference compound] | – | – | – | – | – | – | Wirkung im Granulozytentest ([1]; bis zu Verdünnungen von 10-^6%): keine Wirkungen
2 | COc1ccc2cc3[n+](cc2c1OC)CCc1cc2c(cc1-3)OCO2 [Berberin, reference compound] | unwirksam | – | – | – | – | – | –
3 | CN(Cc1cnc2nc(N)nc(N)c2n1)c1ccc(C(=O)N[C@@H](CCC(=O)O)C(=O)O)cc1 [Methotrexat] | – | – | – | – | – | – | inhibition at 2000 µg/mL [2]: 43%
4 | C1CCN2C[C@@H]3C[C@@H](CN4CCCC[C@@H]34)[C@H]2C1 [Spartein, reference compound] | keine Wirkung | – | – | – | – | – | –
5 | COC(=O)C1=CO[C@@H](C)[C@H]2CN3CC[C@]4(C(=O)Nc5ccccc54)[C@@H]3C[C@H]12 [Mitraphyllin, normal-Mitraphyllin] | – | nicht wirksamen | – | – | – | – | –
6 | C=C[C@]12CN(C)[C@@H]3[C@H]4CO[C@H](C[C@H]41)[C@]1(C(=O)Nc4ccccc41)[C@@H]32 [Gelsemin, reference compound] | – | – | 22,1% | 40,4% | 33,7% | 8,2% | –
7 | Thalifabin [reference compound] | Negativ | – | – | – | – | – | –
8 | O=c1cccc2n1C[C@@H]1CNC[C@H]2C1 [Cytisin, reference compound] | keine Wirkung | – | – | – | – | – | –
9 | Thalifaberin [reference compound] | Negativ | – | – | – | – | – | –
10 | CC[C@H]1CN2CC[C@]3(C(=O)Nc4ccccc43)[C@@H]2C[C@@H]1/C(=C\OC)C(=O)OC [Rhynchophyllin] | – | nicht wirksamen | – | – | – | – | –
11 | COC(=O)C1=CO[C@@H](C)[C@@H]2CN3CC[C@]4(C(=O)Nc5ccccc54)[C@@H]3C[C@H]12 [Pteropodin, allo-Pteropodin] | – | wirksamen | 11,2% | 21,7% | 26,1% | 23,0% | prozentuelle Steigerung der CL-Antwort ([3]; Konzentration 10^-3 %): 10,6%; prozentuelle Steigerung der CL-Antwort ([3]; Konzentration 10^-4 %): 10,0%; prozentuelle Steigerung der CL-Antwort ([3]; Konzentration 10^-5 %): 23,7%; prozentuelle Steigerung der CL-Antwort ([3]; Konzentration 10^-6 %): 15,4%
12 | COc1cccc2c1cc([N+](=O)[O-])c1c(C(=O)O)cc3c(c12)OCO3 [Aristolochiasäure, reference compound] | – | – | – | – | – | – | Steigerung der Phagozytoseaktivität (respiratory burst) ([3]; CL-Test mit isolierten Granulozyten, Na-Salz): dosisabhängige Steigerung der Phagozytoseaktivität
13 | CC[C@H]1CN2CC[C@@]3(C(=O)Nc4ccccc43)[C@@H]2C[C@@H]1/C(=C\OC)C(=O)OC [Isorhynchophyllin] | – | wirksamen | 10,8% | 25,2% | 27,3% | 16,1% | prozentuelle Phagozytosesteigerung ([1]; Konzentration 10^-6 (in %)): 8,8%
14 | COC(=O)C1=CO[C@@H](C)[C@@H]2CN3CC[C@@]4(C(=O)Nc5ccccc54)[C@@H]3C[C@H]12 [Isopteropodin, allo-Isopteropodin] | – | wirksamen | 23,4% | 48,7% | 55,0% | 38,2% | prozentuelle Steigerung der CL-Antwort ([3]; Konzentration 10^-3 %): 67,2%; prozentuelle Steigerung der CL-Antwort ([3]; Konzentration 10^-4 %): 66,0%; prozentuelle Steigerung der CL-Antwort ([3]; Konzentration 10^-5 %): 55,7%; prozentuelle Steigerung der CL-Antwort ([3]; Konzentration 10^-6 %): 68,1%; prozentuelle Steigerung der CL-Antwort ([3]; Konzentration 10^-7 %): 55,3%; prozentuelle Steigerung der CL-Antwort ([3]; Konzentration 10^-8 %): 31,2%; prozentuelle Phagozytosesteigerung ([1]; Konzentration 10^-6 (in %)): 28,2%; prozentuelle Phagozytosesteigerung ([1]; Konzentration 10^-7 (in %)): 13,6%
15 | COC(=O)C1=CO[C@@H](C)[C@H]2CN3CC[C@@]4(C(=O)Nc5ccccc54)[C@@H]3C[C@H]12 [Isomitraphyllin, normal-Isomitraphyllin] | – | wirksamen | 16,5% | 27,0% | 27,0% | 19,4% | prozentuelle Steigerung der CL-Antwort ([3]; Konzentration 10^-3 %): 15,4%; prozentuelle Steigerung der CL-Antwort ([3]; Konzentration 10^-4 %): 15,7%; prozentuelle Steigerung der CL-Antwort ([3]; Konzentration 10^-5 %): 36,1%; prozentuelle Steigerung der CL-Antwort ([3]; Konzentration 10^-6 %): 46,7%; prozentuelle Steigerung der CL-Antwort ([3]; Konzentration 10^-7 %): 18,6%; prozentuelle Phagozytosesteigerung ([1]; Konzentration 10^-6 (in %)): 5,7%
16 | Huangshanin [reference compound] | Negativ | – | – | – | – | – | –
17 | COC(=O)C1=CO[C@@H](C)[C@@H]2CN3CC[C@@]4(C(=O)Nc5ccccc54)[C@H]3C[C@H]12 [Speciophyllin, reference compound] | – | – | 10,5% | 18,5% | 26,0% | 35,3% | –
18 | CC[C@]1(O)C[C@H]2CN(CCc3c([nH]c4ccccc34)[C@@](C(=O)OC)(c3cc4c(cc3OC)N(C=O)[C@H]3[C@@](O)(C(=O)OC)[C@H](OC(C)=O)[C@]5(CC)C=CCN6CC[C@]43[C@@H]65)C2)C1 [Vincristin, reference compound] | – | – | – | – | – | – | in-vitro-Hemmung der Makrophagen-Phagozytose [4]: in-vitro-Hemmung der Makrophagen-Phagozytose; Wirkung im Granulozytentest ([1]; bis zu Verdünnungen von 10-^6%): keine Wirkungen
